Reference: patent publication US20220204491A1, “FXR (NR1H4) MODULATING COMPOUNDS” (Gilead Sciences, Inc., priority 2019, published 2022)

Target: T1, human UGT1A1 (Homo sapiens, UniProt P22309)
T1 construct: purchased
T1 sequence (P22309 26-533): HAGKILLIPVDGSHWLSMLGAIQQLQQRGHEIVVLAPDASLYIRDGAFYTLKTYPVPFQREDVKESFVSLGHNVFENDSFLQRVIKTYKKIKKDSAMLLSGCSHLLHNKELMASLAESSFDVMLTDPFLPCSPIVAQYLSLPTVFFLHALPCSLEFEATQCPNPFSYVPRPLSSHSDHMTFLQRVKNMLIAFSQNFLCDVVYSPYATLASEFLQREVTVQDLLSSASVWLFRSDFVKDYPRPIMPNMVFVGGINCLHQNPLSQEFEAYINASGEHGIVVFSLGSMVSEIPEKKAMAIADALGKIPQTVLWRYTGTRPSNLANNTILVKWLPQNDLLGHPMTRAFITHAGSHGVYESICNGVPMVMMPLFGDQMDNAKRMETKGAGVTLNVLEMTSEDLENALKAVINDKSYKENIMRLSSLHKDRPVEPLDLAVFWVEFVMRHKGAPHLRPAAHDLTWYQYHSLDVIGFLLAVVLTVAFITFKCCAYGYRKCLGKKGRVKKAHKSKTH
Assay: UGT1A1 inhibition (estradiol 3-glucuronide formation, Supersomes)
Format: in vitro ADME
Experimental: The compound of Formula (I) (Example 1) was tested for inhibition of UGT1A1 and was compared against Comparative Example 1. To perform the assay, sample compound was incubated with human UGT1A1 expressed Supersomes™ (0.25 mg/mL), alamethicin (25 μg/mg) and UDPGA (5 mM) in the presence of probe substrate estradiol (10 μM) for 30 mins at 37° C. A selective UGT1A1 inhibitor, atazanavir, was screened alongside the test compounds as a positive control. The reactions were terminated by quenching an aliquot into two volumes of methanol. The samples were centrifuged at 2500 rpm for 30 mins at 4° C., and aliquots of the supernatant were diluted with formic acid in deionised water (final formic acid concentration 0.1%) and internal standard. Cyprotex generic LC-MS/MS conditions were used to monitor estradiol 3-glucuronide formation. A decrease in the formation of the metabolite compared to vehicle control is used to calculate an IC50 value.

- IC50 (probe substrate estradiol 10 μM, 30 mins at 37° C.): 440 nM
SMILES: O=C(O)c1ccc(N2CC(O)(c3ccc(OCc4c(-c5c(Cl)cc(F)cc5Cl)noc4C4CC4)cc3Cl)C2)nc1 [Example 1, 6-(3-(2-chloro-4-((5-cyclopropyl-3-(2,6-dichloro-4-fluorophenyl)isoxazol-4-yl)methoxy)phenyl)-3-hydroxyazetidin-1-yl)nicotinic acid]
- UGT1A1 inhibition, comparison of the compounds (Example 1 compared against Comparative Example 1): most potent UGT1A1 inhibition of the compounds compared
